Measured values as given in patent US4868321A, “Isothiocyanate intermediates” (FMC Corporation, priority 1988, dated 1989).

Key:
Type in all cases: in vivo
Cotton [1] = experiment: Preemergence Herbicidal Activity, Cotton; details: Gossypium hirsutum, pre-emergence; for plant injury at 1000 g/ha: 1.0 kg/ha
How it was run: (§1)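 Test compounds were applied, usually as solutions in 50/50 acetone/water, to plants postemergence or to soil preemergence. Rates are given in kg/ha, and activity is scored as percent control (% C).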

Soybean [2] = experiment: Preemergence Herbicidal Activity, Soybean; details: Glycine max, pre-emergence; for plant injury at 1000 g/ha: 1.0 kg/ha
How it was run: (§2)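 Herbicidal response was graded as percent control. Compound rates were in kg/ha.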

Field Corn [3] = experiment: Preemergence Herbicidal Activity, Field Corn; details: Zea mays, pre-emergence; for plant injury at 1000 g/ha: 1.0 kg/ha
How it was run: as §2

Rice [4] = experiment: Preemergence Herbicidal Activity, Rice; details: Oryza sativa, pre-emergence; for plant injury at 1000 g/ha: 1.0 kg/ha
How it was run: as §2

Wheat [5] = experiment: Preemergence Herbicidal Activity, Wheat; details: Triticum aestivum, pre-emergence; for plant injury at 1000 g/ha: 1.0 kg/ha
How it was run: as §2

Field Bindweed [6] = experiment: Preemergence Herbicidal Activity, Field Bindweed; details: pre-emergence; for pest or weed control at 1000 g/ha: 1.0 kg/ha
How it was run: as §1

Morningglory [7] = experiment: Preemergence Herbicidal Activity, Morningglory; details: Ipomoea, pre-emergence; for pest or weed control at 1000 g/ha: 1.0 kg/ha
How it was run: as §1

Velvetleaf [8] = experiment: Preemergence Herbicidal Activity, Velvetleaf; details: Abutilon theophrasti, pre-emergence; for pest or weed control at 1000 g/ha: 1.0 kg/ha
How it was run: as §1

Barnyardgrass [9] = experiment: Preemergence Herbicidal Activity, Barnyardgrass; details: Echinochloa crus-galli, pre-emergence; for pest or weed control at 1000 g/ha: 1.0 kg/ha
How it was run: (§3)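 Application rate is expressed per hectare in kilograms. Values are percent control.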

Green Foxtail [10] = experiment: Preemergence Herbicidal Activity, Green Foxtail; details: Setaria viridis, pre-emergence; for pest or weed control at 1000 g/ha: 1.0 kg/ha
How it was run: as §3

Johnsongrass [11] = experiment: Preemergence Herbicidal Activity, Johnsongrass; details: Sorghum halepense, pre-emergence; for pest or weed control at 1000 g/ha: 1.0 kg/ha
How it was run: as §3

Cotton [12] = experiment: Postemergence Herbicidal Activity, Cotton; details: Gossypium hirsutum, post-emergence; for plant injury at 1000 g/ha: 1.0 kg/ha
How it was run: as §1

Soybean [13] = experiment: Postemergence Herbicidal Activity, Soybean; details: Glycine max, post-emergence; for plant injury at 1000 g/ha: 1.0 kg/ha
How it was run: as §2

Field Corn [14] = experiment: Postemergence Herbicidal Activity, Field Corn; details: Zea mays, post-emergence; for plant injury at 1000 g/ha: 1.0 kg/ha
How it was run: as §2

Rice [15] = experiment: Postemergence Herbicidal Activity, Rice; details: Oryza sativa, post-emergence; for plant injury at 1000 g/ha: 1.0 kg/ha
How it was run: as §2

Wheat [16] = experiment: Postemergence Herbicidal Activity, Wheat; details: Triticum aestivum, post-emergence; for plant injury at 1000 g/ha: 1.0 kg/ha
How it was run: as §2

Field Bindweed [17] = experiment: Postemergence Herbicidal Activity, Field Bindweed; details: post-emergence; for pest or weed control at 1000 g/ha: 1.0 kg/ha
How it was run: as §1

Morningglory [18] = experiment: Postemergence Herbicidal Activity, Morningglory; details: Ipomoea, post-emergence; for pest or weed control at 1000 g/ha: 1.0 kg/ha
How it was run: as §1

Velvetleaf [19] = experiment: Postemergence Herbicidal Activity, Velvetleaf; details: Abutilon theophrasti, post-emergence; for pest or weed control at 1000 g/ha: 1.0 kg/ha
How it was run: as §1

Barnyardgrass [20] = experiment: Postemergence Herbicidal Activity, Barnyardgrass; details: Echinochloa crus-galli, post-emergence; for pest or weed control at 1000 g/ha: 1.0 kg/ha
How it was run: as §3

Green Foxtail [21] = experiment: Postemergence Herbicidal Activity, Green Foxtail; details: Setaria viridis, post-emergence; for pest or weed control at 1000 g/ha: 1.0 kg/ha
How it was run: as §3

Johnsongrass [22] = experiment: Postemergence Herbicidal Activity, Johnsongrass; details: Sorghum halepense, post-emergence; for pest or weed control at 1000 g/ha: 1.0 kg/ha
How it was run: as §3

Structure (SMILES): CS(=O)(=O)Nc1cc(-n2nnn(CCCF)c2=O)c(Cl)cc1F [Compound 38, 1-[2-Chloro-4-fluoro-5-(N--methylsulfonylamino)phenyl]-4,5-dihydro-4-(3-fluoropropyl)-5H--tetrazol-5-one]
- plant injury at 1000 g/ha (Cotton [1]): 70%
- plant injury at 1000 g/ha (Soybean [2]): 50%
- plant injury at 1000 g/ha (Field Corn [3]): 10%
- plant injury at 1000 g/ha (Rice [4]): 40%
- plant injury at 1000 g/ha (Wheat [5]): 10%
- pest or weed control at 1000 g/ha (Field Bindweed [6]): 95%
- pest or weed control at 1000 g/ha (Morningglory [7]): 100%
- pest or weed control at 1000 g/ha (Velvetleaf [8]): 100%
- pest or weed control at 1000 g/ha (Barnyardgrass [9]): 80%
- pest or weed control at 1000 g/ha (Green Foxtail [10]): 80%
- pest or weed control at 1000 g/ha (Johnsongrass [11]): 40%
- plant injury at 1000 g/ha (Cotton [12]): 95%
- plant injury at 1000 g/ha (Soybean [13]): 90%
- plant injury at 1000 g/ha (Field Corn [14]): 50%
- plant injury at 1000 g/ha (Rice [15]): 20%
- plant injury at 1000 g/ha (Wheat [16]): 50%
- pest or weed control at 1000 g/ha (Field Bindweed [17]): 100%
- pest or weed control at 1000 g/ha (Morningglory [18]): 100%
- pest or weed control at 1000 g/ha (Velvetleaf [19]): 100%
- pest or weed control at 1000 g/ha (Barnyardgrass [20]): 50%
- pest or weed control at 1000 g/ha (Green Foxtail [21]): 80%
- pest or weed control at 1000 g/ha (Johnsongrass [22]): 80%

Structure (SMILES): CCS(=O)(=O)Nc1cc(-n2nnn(CCCF)c2=O)c(Cl)cc1F [Compound 39, 1-[2-Chloro-4-fluoro-5-(N--ethylsulfonylamino)phenyl]-4,5-dihydro-4-(3-fluoropropyl)-5H--tetrazol-5-one]
- plant injury at 1000 g/ha (Cotton [1]): 50%
- plant injury at 1000 g/ha (Soybean [2]): 10%
- plant injury at 1000 g/ha (Field Corn [3]): 70%
- plant injury at 1000 g/ha (Rice [4]): 10%
- plant injury at 1000 g/ha (Wheat [5]): 20%
- pest or weed control at 1000 g/ha (Field Bindweed [6]): 70%
- pest or weed control at 1000 g/ha (Morningglory [7]): 100%
- pest or weed control at 1000 g/ha (Velvetleaf [8]): 100%
- pest or weed control at 1000 g/ha (Barnyardgrass [9]): 60%
- pest or weed control at 1000 g/ha (Green Foxtail [10]): 50%
- pest or weed control at 1000 g/ha (Johnsongrass [11]): 10%
- plant injury at 1000 g/ha (Cotton [12]): 100%
- plant injury at 1000 g/ha (Soybean [13]): 95%
- plant injury at 1000 g/ha (Field Corn [14]): 50%
- plant injury at 1000 g/ha (Rice [15]): 20%
- plant injury at 1000 g/ha (Wheat [16]): 30%
- pest or weed control at 1000 g/ha (Field Bindweed [17]): 100%
- pest or weed control at 1000 g/ha (Morningglory [18]): 100%
- pest or weed control at 1000 g/ha (Velvetleaf [19]): 100%
- pest or weed control at 1000 g/ha (Barnyardgrass [20]): 50%
- pest or weed control at 1000 g/ha (Green Foxtail [21]): 50%
- pest or weed control at 1000 g/ha (Johnsongrass [22]): 50%

Structure (SMILES): Cn1nnn(-c2cc(N(S(C)(=O)=O)S(C)(=O)=O)c(Cl)cc2F)c1=O [Compound 40]
- plant injury at 4000 g/ha (Cotton [1]; 4.0 kg/ha): 50%
- plant injury at 4000 g/ha (Soybean [2]; 4.0 kg/ha): 20%
- plant injury at 4000 g/ha (Field Corn [3]; 4.0 kg/ha): 30%
- plant injury at 4000 g/ha (Rice [4]; 4.0 kg/ha): 20%
- plant injury at 4000 g/ha (Wheat [5]; 4.0 kg/ha): 30%
- pest or weed control at 4000 g/ha (Field Bindweed [6]; 4.0 kg/ha): 40%
- pest or weed control at 4000 g/ha (Morningglory [7]; 4.0 kg/ha): 70%
- pest or weed control at 4000 g/ha (Velvetleaf [8]; 4.0 kg/ha): 100%
- pest or weed control at 4000 g/ha (Barnyardgrass [9]; 4.0 kg/ha): 70%
- pest or weed control at 4000 g/ha (Green Foxtail [10]; 4.0 kg/ha): 40%
- pest or weed control at 4000 g/ha (Johnsongrass [11]; 4.0 kg/ha): 40%
- plant injury at 4000 g/ha (Cotton [12]; 4.0 kg/ha): 40%
- plant injury at 4000 g/ha (Soybean [13]; 4.0 kg/ha): 20%
- plant injury at 4000 g/ha (Field Corn [14]; 4.0 kg/ha): 20%
- plant injury at 4000 g/ha (Rice [15]; 4.0 kg/ha): 10%
- plant injury at 4000 g/ha (Wheat [16]; 4.0 kg/ha): 20%
- pest or weed control at 4000 g/ha (Field Bindweed [17]; 4.0 kg/ha): 40%
- pest or weed control at 4000 g/ha (Morningglory [18]; 4.0 kg/ha): 60%
- pest or weed control at 4000 g/ha (Velvetleaf [19]; 4.0 kg/ha): 70%
- pest or weed control at 4000 g/ha (Barnyardgrass [20]; 4.0 kg/ha): 60%
- pest or weed control at 4000 g/ha (Green Foxtail [21]; 4.0 kg/ha): 30%
- pest or weed control at 4000 g/ha (Johnsongrass [22]; 4.0 kg/ha): 30%
